Experimental data as given in article PMC11971462, “Generation and validation of a novel multitarget small molecule in glioblastoma” (Cell Death & Disease, 2025).
Where two headings read alike, the source gives them in different places.

Test system: GNS166 cells

## C#CCN(Cc1cc2cc(OCCCN3CCCCC3)ccc2n1S(=O)(=O)c1ccccc1)C(=O)CCCCCCC(=O)NO [DDI]
  PCBP3 log2FoldChange: 5.457
  PCDH15 log2FoldChange: 3.424
  PCDH19 log2FoldChange: 2.11
  PCDHA13 log2FoldChange: 3.483
  PCOLCE2 log2FoldChange: 2.03
  PCP4L1 log2FoldChange: 4.897
  PCSK1 log2FoldChange: 3.118
  PDE2A log2FoldChange: 2.038
  PDE3A log2FoldChange: 2.332
  PDE4C log2FoldChange: 2.296
  PDK4 log2FoldChange: 2.588
  PDX1 log2FoldChange: 3.554
  PLA2G4A log2FoldChange: 2.126
  PLCXD2 log2FoldChange: 2.533
  PLEK2 log2FoldChange: 2.459
  PLEKHA6 log2FoldChange: 2.086
  PLP1 log2FoldChange: 2.506
  PPM1N log2FoldChange: 2.335
  PPP1R1B log2FoldChange: 4.39
  PPP1R16B log2FoldChange: 3.376
  PPP4R4 log2FoldChange: 3.111
  PRR29 log2FoldChange: 3.599
  PRRX2 log2FoldChange: 2.314
  PRSS3 log2FoldChange: 3.932
  PSD2 log2FoldChange: 3.562
  PSG1 log2FoldChange: 5.24
  PSG4 log2FoldChange: 4.564
  PSG5 log2FoldChange: 4.838
  PSG9 log2FoldChange: 3.658
  PTGS1 log2FoldChange: 4.0843
  PTPN5 log2FoldChange: 4.236
  PTPRO log2FoldChange: 3.032
  PTPRQ log2FoldChange: 3.237
  QPRT log2FoldChange: 2.003
  RAB39A log2FoldChange: 2.508
  RADX log2FoldChange: 2.3792
  RAET1G log2FoldChange: 2.196
  RAP1GAP log2FoldChange: 2.521
  RARB log2FoldChange: 2.002
  RASD2 log2FoldChange: 3.718
  RASIP1 log2FoldChange: 2.128
  RDH12 log2FoldChange: 3.657
  REM1 log2FoldChange: 2.662
  RFPL4A log2FoldChange: 5.081
  RFTN2 log2FoldChange: 4.233
  RGS9 log2FoldChange: 5.175
  RIMBP2 log2FoldChange: 6.452
  RIMS4 log2FoldChange: 5.004
  RNF165 log2FoldChange: 3.79
  RUNDC3A log2FoldChange: 4.619
  S100B log2FoldChange: 3.045
  SAMD11 log2FoldChange: 4.391
  SCEL log2FoldChange: 2.003
  SCIN log2FoldChange: 3.412
  SCN3A log2FoldChange: 2.697
  SCN4B log2FoldChange: 2.757
  SCN5A log2FoldChange: 2.371
  SCN9A log2FoldChange: 2.594
  SCUBE1 log2FoldChange: 7.641
  SEMA3F log2FoldChange: 2.777
  SEMA5A log2FoldChange: 2.383
  SERPING1 log2FoldChange: 4.327
  SERPINI1 log2FoldChange: 3.966
  SERTM1 log2FoldChange: 2.165
  SGIP1 log2FoldChange: 2.3607
  SH2D3C log2FoldChange: 5.237
  SHANK1 log2FoldChange: 6.717
  SHF log2FoldChange: 2.222
  SHISA7 log2FoldChange: 4.7
  SLC4A5 log2FoldChange: 2.594
  SLC6A17 log2FoldChange: 2.657
  SLC7A2 log2FoldChange: 3.19
  SLC7A10 log2FoldChange: 6.012
  SLC8A2 log2FoldChange: 4.387
  SLC9A9 log2FoldChange: 2.124
  SLC16A12 log2FoldChange: 2.212
  SLC22A31 log2FoldChange: 5.211
  SLC25A27 log2FoldChange: 5.956
  SLC44A3 log2FoldChange: 2.701
  SLC45A1 log2FoldChange: 2.018
  SLIT2 log2FoldChange: 2.219
  SLITRK3 log2FoldChange: 2.145
  SMPDL3B log2FoldChange: 3.134
  SNCB log2FoldChange: 4.848
  SNX22 log2FoldChange: 2.0694
  SNX32 log2FoldChange: 2.323
  SOBP log2FoldChange: 2.326
  SPANXC log2FoldChange: 2.711
  SPINK2 log2FoldChange: 3.038
  SPNS2 log2FoldChange: 3.326
  SSTR2 log2FoldChange: 2.236
  ST3GAL5 log2FoldChange: 2.386
  ST6GALNAC3 log2FoldChange: 2.853
  STAT4 log2FoldChange: 3.605
  STC1 log2FoldChange: 3.854
  STMN3 log2FoldChange: 2.874
  STUM log2FoldChange: 6.45
  STX1B log2FoldChange: 2.758
  STXBP5L log2FoldChange: 2.17
  SYNPO2 log2FoldChange: 2.428
  SYP log2FoldChange: 4.307
  SYT2 log2FoldChange: 5.115
  SYT5 log2FoldChange: 6.667
  SYT13 log2FoldChange: 2.882
  SYTL3 log2FoldChange: 2.536
  TAGLN3 log2FoldChange: 3.305
  TBC1D8B log2FoldChange: 2.1255
  TCEAL5 log2FoldChange: 4.062
  TCIM log2FoldChange: 3.258
  TEC log2FoldChange: 4.937
  TEKT3 log2FoldChange: 2.698
  TESC log2FoldChange: 5.269
  TEX19 log2FoldChange: 3.325
  THSD7B log2FoldChange: 3.117
  TJP3 log2FoldChange: 5.915
  TLCD3B log2FoldChange: 2.485
  TLR9 log2FoldChange: 2.809
  TLX2 log2FoldChange: 2.462
  TMEM47 log2FoldChange: 2.003
  TMEM74B log2FoldChange: 3.647
  TMEM74 log2FoldChange: 4.084
  TMEM92 log2FoldChange: 3.463
  TMEM139 log2FoldChange: 3.161
  TMEM145 log2FoldChange: 3.464
  TMEM151B log2FoldChange: 3.192
  TMEM156 log2FoldChange: 3.7131
  TMOD1 log2FoldChange: 2.144
  TNFSF18 log2FoldChange: 2.976
  TNNI3 log2FoldChange: 7.061
  TRPC4 log2FoldChange: 3.104
  TTYH1 log2FoldChange: 4.78
  TUBA3C log2FoldChange: 6.251
  TUSC3 log2FoldChange: 3.3304
  UNC5B log2FoldChange: 3.5878
  USH1G log2FoldChange: 7.012
  VAV3 log2FoldChange: 2.016
  VGLL2 log2FoldChange: 2.35
  VTCN1 log2FoldChange: 4.133
  VWA1 log2FoldChange: 2.457
  WNT2B log2FoldChange: 2.031
  WNT10B log2FoldChange: 3.628
  WSCD1 log2FoldChange: 2.865
  XYLT1 log2FoldChange: 5.474
  YPEL4 log2FoldChange: 2.644
  ZCCHC12 log2FoldChange: 2.836
  ZDHHC11B log2FoldChange: 2.194
  ZDHHC22 log2FoldChange: 3.089
  ZFP92 log2FoldChange: 2.85
  ZMYND10 log2FoldChange: 2.335
  ZNF208 log2FoldChange: 3.37
Gene ALOX15B
  Direction: Up
Gene AMBN
  Direction: Up
Gene APELA
  Direction: Up
Gene ATP2B3
  Direction: Up
Gene B3GALT5
  Direction: Up
Gene BCL11B
  Direction: Up
Gene BRS3
  Direction: Up
Gene CA4
  Direction: Up
Gene CA7
  Direction: Up
Gene CAPNS2
  Direction: Up
Gene CCN5
  Direction: Up
Gene CD1D
  Direction: Up
Gene CDC20B
  Direction: Up
Gene CELF4
  Direction: Up
Gene CES1
  Direction: Up
Gene CFAP52
  Direction: Up
Gene CHRNA3
  Direction: Up
Gene CRB1
  Direction: Up
Gene CSAG1
  Direction: Up
Gene CSDC2
  Direction: Up
Gene CUX2
  Direction: Up
Gene CXorf51A
  Direction: Up
Gene DES
  Direction: Up
Gene DGKK
  Direction: Up
Gene EBF2
  Direction: Up
Gene EREG
  Direction: Up
Gene FAM9C
  Direction: Up
Gene FAM166A
  Direction: Up
Gene FER1L5
  Direction: Up
Gene FGD3
  Direction: Up
Gene FRG2
  Direction: Up
Gene FRMD7
  Direction: Up
Gene GAS7
  Direction: Up
Gene GMNC
  Direction: Up
Gene GOLGA8F
  Direction: Up
Gene GREM2
  Direction: Up
Gene GUCY2F
  Direction: Up
Gene HOXC13
  Direction: Up
Gene IBSP
  Direction: Up
Gene IRAG1
  Direction: Up
Gene IRF6
  Direction: Up
Gene KANK3
  Direction: Up
Gene KCNA1
  Direction: Up
Gene KCNH6
  Direction: Up
Gene KCNK5
  Direction: Up
Gene KCNK15
  Direction: Up
Gene KCNN2
  Direction: Up
Gene KCNQ1
  Direction: Up
Gene LHFPL1
  Direction: Up
Gene LHX5
  Direction: Up
Gene LOC102723623
  Direction: Up
Gene LRRC15
  Direction: Up
Gene MAGEA2
  Direction: Up
Gene MAGEA2B
  Direction: Up
Gene MAGEA6
  Direction: Up
Gene MAPK15
  Direction: Up
Gene ME1
  Direction: Up
Gene MEIOSIN
  Direction: Up
Gene MMEL1
  Direction: Up
Gene MMP12
  Direction: Up
Gene MYL2
  Direction: Up
Gene NOS3
  Direction: Up
Gene NTRK1
  Direction: Up
Gene PAGE4
  Direction: Up
Gene PAX2
  Direction: Up
Gene PCDHA1
  Direction: Up
Gene PITX3
  Direction: Up
Gene PLAC1
  Direction: Up
Gene PLK5
  Direction: Up
Gene PLXDC1
  Direction: Up
Gene PNLIPRP3
  Direction: Up
Gene POU3F4
  Direction: Up
Gene PSG6
  Direction: Up
Gene PTPRN
  Direction: Up
Gene RPRML
  Direction: Up
Gene RSPO1
  Direction: Up
Gene SCN4A
  Direction: Up
Gene SCRT1
  Direction: Up
Gene SH2D3A
  Direction: Up
Gene SHH
  Direction: Up
Gene SIDT1
  Direction: Up
Gene SLC4A9
  Direction: Up
Gene SLC11A1
  Direction: Up
Gene SLC18A1
  Direction: Up
Gene SLC19A3
  Direction: Up
Gene SLC35F3
  Direction: Up
Gene SLC36A2
  Direction: Up
Gene STMN4
  Direction: Up
Gene STRC
  Direction: Up
Gene SYT1
  Direction: Up
Gene TAC3
  Direction: Up
Gene TMEM196
  Direction: Up
Gene TNIP3
  Direction: Up
Gene TSPAN18
  Direction: Up
Gene TTC9B
  Direction: Up
Gene UGT3A1
  Direction: Up
Gene UNC5A
  Direction: Up
Gene VWA3B
  Direction: Up
Gene ZBBX
  Direction: Up
Gene ZNF479
  Direction: Up
